The values that follow come from PubChem BioAssay (NCI).

Holding throughout (test): NCI anticancer screen, dose series, 48 h
Experiment [1] relates to ACHN renal.
The test system of experiment [2] is HCT-116 colon.
The test system of experiment [3] is IGROV1 ovarian.
The subject of experiment [4] is NCI-H226 lung.
The test system of experiment [5] is OVCAR-8 ovarian.
Experiment [6] has as its system SF-268 CNS.
For experiment [7], the system named is SK-MEL-28 melanoma.
The test system of experiment [8] is U251 CNS.
For experiment [9], the system named is OVCAR-5 ovarian.

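Grown in 96-well plates, cells were treated for 48 hours with each compound at five concentrations. Insufficient inhibition: endpoint recorded as highest concentration tested. Abbreviation: GI50, concentration required for 50% inhibition of growth. TGI: concentration producing complete growth inhibition.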 Where a SMILES comes first, the peptide text is derived from it. The star is where a group is joined. Boc = CC(C)(C)OC(=O)*; OBn = c1ccc(CO*)cc1

With `c1ccc2c(c1)CCc1cc3cc4c(nc3nc1-2)-c1ccccc1CC4`, the TGI in experiment [1], in experiment [2], in [3], in [4], in [5] and in experiment [6] was more than 100 µM in each case. Also, the TGI in experiment [7] and in experiment [8] was more than 100 µM in each case.

Regarding `CCSC1=C(C)N(C=NC(C)(C)C)CC1`, the TGI in [1], in experiment [2], in experiment [3], in experiment [4], in experiment [9] and in [5] was more than 100 µM in each case. Besides, the TGI in [6], in [7] and in [8] was more than 100 µM in each case.

Consider `O=C1NC2(CCCCC2)C2CCCCCC12` (configuration not stated), for which the TGI in experiment [1], in experiment [2], in experiment [3], in [4], in experiment [9] and in experiment [6] was more than 100 µM in each case. Also, the TGI in experiment [7] and in [8] was more than 100 µM in each case.

On to `CCOC(=O)CNC(=O)C(C)NC(=O)C(NC(=O)CC(c1ncc[nH]1)c1ncc[nH]1)C(C)CC` (configuration not stated), for which the TGI in [1], in experiment [2], in experiment [3], in experiment [9], in experiment [5] and in experiment [6] was more than 100 µM each time. The TGI in [7] and in experiment [8] was more than 100 µM throughout.

Regarding `O=c1[nH]c(=O)n(Cc2ccccc2CO)cc1Sc1ccccc1`, the TGI in experiment [1] was 96.4 µM; in experiment [2], 64.7 µM; in [3] it was 29 µM; in [4], 43.8 µM; in experiment [9], more than 100 µM; in [5], 48.2 µM. Also, the values for the TGI in experiment [6], in experiment [7] and in experiment [8] were 70.6 µM, more than 100 µM and more than 100 µM, respectively.

On to `Oc1[nH]c2ccccc2c1N=Nc1nc(-c2ccc(Cl)c(Cl)c2)cs1`, for which the TGI in [1], in [2], in [3], in experiment [4], in experiment [9] and in experiment [5] was more than 100 µM each time. The TGI in experiment [7] and in [8] was more than 100 µM throughout.

Turning to `COc1cccc(/C=N/[N-]C(N)=O)c1[O-].[Ni+2].[OH3+].c1cnc2c(c1)ccc1cccnc12`, the TGI in experiment [1], in experiment [2], in experiment [3], in experiment [4], in [9] and in [5] was more than 100 µM in each case. Also, the TGI in experiment [6], in experiment [7] and in [8] was more than 100 µM in each case.

`CCCCOP1(=O)C=C(C)C(=C(Cl)Cl)C(C)=C1` (configuration not stated): the TGI was 23.6 µM in experiment [1]; 6.29 µM in experiment [2]; 49 µM in [3]; 13 µM in [4]; more than 100 µM in [9]; more than 54.2 µM in experiment [5]. In addition, the TGI was 27.3 µM in experiment [6], 23.9 µM in experiment [7] and 22.4 µM in [8].

Take `C=C1C(=O)OCC2C(C(=O)O)=CC3C(C)C(C)=CC123` (configuration not stated): the TGI in experiment [2] came to 35.5 µM; in experiment [3], 36.1 µM; in [4], 52.1 µM; in [9] it was 66.3 µM; in experiment [5], 73.5 µM; in experiment [6] it was 32.8 µM. The values for the TGI in experiment [7] and in experiment [8] were 7.64 µM and 38.6 µM, respectively.

For `NC(N)=NNC(=O)CCCCCCCC(=O)NN=C(N)N`, the TGI in [1], in [2], in experiment [3], in experiment [9], in experiment [6] and in experiment [7] was more than 100 µM in each case. Besides, in [8], the TGI was more than 100 µM.

Take `COc1cccc(N(CN2CC=CC2=O)C(C)=O)c1`: the TGI in [1], in [2], in experiment [3], in experiment [4], in [9] and in [5] was more than 100 µM throughout. The TGI in [6], in experiment [7] and in [8] was more than 100 µM throughout.

With `NCCNc1cccc2ccccc12`, the TGI in experiment [1], in experiment [2], in experiment [3], in experiment [4], in experiment [9] and in experiment [5] was more than 100 µM throughout. Further, the TGI in [6] and in experiment [8] was more than 100 µM each time.

For the compound `CCN(c1ccc(Br)cc1)c1c(Br)c(=O)nc2ccccn12`, the TGI in [1], in experiment [2], in experiment [3], in [4], in experiment [9] and in experiment [5] was more than 100 µM each time. Besides, the TGI in [6], in experiment [7] and in experiment [8] was more than 100 µM throughout.

Consider `Cc1cccc(NC(=O)C(=O)C(C(=O)c2ccccc2F)C2OC(=O)c3ccccc32)c1Cl` (configuration not stated), for which the TGI in [1] is more than 100 µM; in [2], 45.3 µM; in experiment [3], more than 100 µM; in experiment [4], 62.3 µM; in experiment [9], more than 100 µM; in experiment [5], 50.6 µM. Moreover, the TGI in experiment [6] is 80.9 µM; in experiment [7] it was more than 100 µM; in [8] it was 36 µM.

As to `CC(C)(C)C(=O)ON1N=NC2C3CC(OCc4ccccc4)(OCc4ccccc4)C(O3)C21` (configuration not stated), the TGI in [1] was 91.5 µM; in [3], more than 100 µM; in experiment [4], 40 µM; in [9], more than 100 µM; in [6], 88.2 µM; in experiment [7] it was 35.3 µM. In experiment [8], this compound showed a TGI of 31.4 µM.

`COc1cccc(Cc2c3cc(OC)ccc3cc[n+]2C)c1`: the TGI in experiment [1], in experiment [9], in [5], in [6], in experiment [7] and in [8] was more than 100 µM throughout.

In the case of `O=[Se](=O)c1ccccc1.O=[Se](=O)c1ccccc1.[Cu]`, the GI50 in experiment [2] was 17.4 µM; in experiment [3] it was 18.5 µM; in [4], 21.7 µM; in experiment [9], 23 µM; in experiment [5] it was 15.9 µM; in experiment [6] it was 17.8 µM. Besides, the GI50 in [7] was 16.6 µM; in [8], 17.1 µM. In addition, the TGI in experiment [2] stood at 33 µM; in experiment [3], 37.3 µM; in experiment [4], 39.6 µM; in experiment [9], 37.9 µM; in experiment [5] it was 30.2 µM; in [6], 33.1 µM. Besides, the TGI in experiment [7] was determined as 30.7 µM; in experiment [8], 30.9 µM.

For `CC(=O)O[C@]12CCCC1C1(O)C(O)CCCC12` (some centres not stated), the TGI in experiment [1], in experiment [2], in experiment [4], in experiment [5], in [6] and in experiment [7] was more than 100 µM throughout. In experiment [8], this compound had a TGI of more than 100 µM.

In the case of `COP(=O)(OC)C(Cc1c[nH]c2ccccc12)NC(=O)OCc1ccccc1` (configuration not stated), the TGI in experiment [1], in experiment [2], in [3], in experiment [4], in experiment [9] and in experiment [5] was more than 100 µM throughout. Further, the TGI in experiment [7] and in [8] was more than 100 µM each time.

As to `O=C(N/N=C/c1cc(Cl)cc(Cl)c1[O-])c1ccccc1O.O=C(N/N=C/c1cc(Cl)cc(Cl)c1[O-])c1ccccc1O.[Ni+2]`, the TGI in experiment [1] came out at 2.21 µM; in experiment [2], 1.5 µM; in experiment [3], 1.74 µM; in [4] it was 0.923 µM; in experiment [9], 1.09 µM; in [5], 1.41 µM. The TGI in [6] turned out to be 18.5 µM; in experiment [7], 2.09 µM; in experiment [8], 1.98 µM. Further, the GI50 in experiment [2] is 0.439 µM.

Consider `N#C[S-].[Nd+3].c1ccc(-c2ccccn2)nc1.c1ccc(-c2ccccn2)nc1.c1ccc(-c2ccccn2)nc1`, for which the GI50 in [2] is 8.4 µM; in experiment [3] it was 11.6 µM; in [4], 2.89 µM; in experiment [5] it was 4.8 µM; in [7], 13.7 µM; in experiment [8] it was 4.18 µM. Also, the TGI in experiment [2] is more than 100 µM; in experiment [3], 42.6 µM; in experiment [4], 7.52 µM; in experiment [5] it was more than 100 µM; in experiment [7], more than 100 µM; in [8], more than 100 µM.

For `CC(NC(=O)C(NC(=O)OC(C)(C)C)C(C)C)C(=O)N1CCCC1C(=O)NCC(=O)NC(C(=O)NCC(=O)OCc1ccccc1)C(C)C` (configuration not stated) (Boc-VAPGVG-OBn; configuration not given here), the TGI in experiment [1], in experiment [2], in experiment [3], in [9], in experiment [5] and in experiment [6] was more than 100 µM in each case. Besides, the TGI in [7] and in experiment [8] was more than 100 µM each time.
